Assay results published in patent publication US20240336604A1 (THE UNITED STATES OF AMERICA, AS REPRESENTED BY THE …, priority 2021, published 2024).

How the values were obtained:
Assay type in all cases: cell-based
D2 DAR = D2 DAR (Homo sapiens, UniProt P14416); assay: DiscoverX D2 DAR β-arrestin recruitment assay; parameters: host or cells: CHO; settings: EC80 concentration of DA (1 μM)
Text: For a secondary-screen and selectivity assays, DAR PathHunter®-arrestin GPCR cell lines from DiscoverX (Fremont, CA) were used. In the D2 DAR PathHunter®-arrestin GPCR cell line, the D2 DAR is overexpressed and fused with a small 42-amino acid fragment of β-galactosidase called ProLink™ on a CHO cellular background expressing a fusion protein of β-arrestin and a larger N-terminal deletion mutant of β-galactosidase (“enzyme acceptor”). When the D2 DAR is activated by dopamine, it stimulates binding of β-arrestin to the ProLink-tagged DAR and the two complementary parts of β-galactosidase form a functional enzyme. When substrate (PathHunter™ Detection reagent) is added, β-galactosidase hydrolyzes it and generates a chemiluminescent signal.

D3 DAR [1] = molecular target: T1, D3 DAR (Homo sapiens, UniProt P35462); assay: Go BRET activation assay, D3 DAR; settings: EC80 DA (30 nM); for Emax: 5 min, read-out: D3 Go BRET Imax
T1 sequence (P35462 whole entry): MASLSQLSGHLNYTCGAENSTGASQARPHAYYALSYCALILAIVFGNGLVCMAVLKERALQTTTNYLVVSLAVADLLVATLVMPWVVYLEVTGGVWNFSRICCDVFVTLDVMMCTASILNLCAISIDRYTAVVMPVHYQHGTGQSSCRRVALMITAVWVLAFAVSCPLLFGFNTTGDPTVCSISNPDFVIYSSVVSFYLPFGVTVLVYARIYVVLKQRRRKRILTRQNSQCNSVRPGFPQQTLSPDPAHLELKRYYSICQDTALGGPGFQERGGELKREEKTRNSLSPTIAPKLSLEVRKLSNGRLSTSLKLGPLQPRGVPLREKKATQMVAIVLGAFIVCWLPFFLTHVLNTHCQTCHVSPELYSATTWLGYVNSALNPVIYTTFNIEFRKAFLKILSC
Experimental: Briefly, HEK293T cells transiently expressing either the D2 DAR or D3 DAR and GαoA-Rluc8, untagged-β1, and mVenus-γ2 were harvested with EBSS, plated in 96-well white plates at 20,000 cells/well in DPBS and incubated at RT for 45 min. […] BRET signal was determined by quantifying and calculating the ratio of the light emitted by mVenus (525 nm) over that emitted by RLuc8 (485 nm) using a PHERAstar FSX Microplate Reader (BMG Labtech).

D3 DAR [2] = molecular target: T1, D3 DAR; assay: DiscoverX D3 DAR β-arrestin recruitment assay; parameters: host or cells: CHO; settings: for IC50: EC80 concentration of DA (30 nM), read-out: D3 DAR IC50; for Emax / D3 DAR Imax: Imax=maximum inhibition, EC80 DA (30 nM)
Text: A D3 DAR β-arrestin cell line from DiscoverX (Fremont, CA) was used as described in the protocol below (Table 2). A CHO cell line engineered to overexpress the D3 DAR fused with a small 42-amino acid fragment of β-galactosidase called ProLink™ and a fusion protein consisting of β-arrestin and a larger N-terminal deletion mutant of β-galactosidase was used (DiscoverX catalogue number 93-0579C2). When the D3 DAR is activated by dopamine, it stimulates binding of β-arrestin to ProLink-tagged D3 DARs, and the two complementary parts of β-galactosidase form a functional enzyme. When substrate (PathHunter® Detection reagent, DiscoverX 93-0001) is added, β-galactosidase hydrolyzes it and generates a chemiluminescent signal.

D2 DAR, sequence (P14416 whole entry, the tested form may be a part): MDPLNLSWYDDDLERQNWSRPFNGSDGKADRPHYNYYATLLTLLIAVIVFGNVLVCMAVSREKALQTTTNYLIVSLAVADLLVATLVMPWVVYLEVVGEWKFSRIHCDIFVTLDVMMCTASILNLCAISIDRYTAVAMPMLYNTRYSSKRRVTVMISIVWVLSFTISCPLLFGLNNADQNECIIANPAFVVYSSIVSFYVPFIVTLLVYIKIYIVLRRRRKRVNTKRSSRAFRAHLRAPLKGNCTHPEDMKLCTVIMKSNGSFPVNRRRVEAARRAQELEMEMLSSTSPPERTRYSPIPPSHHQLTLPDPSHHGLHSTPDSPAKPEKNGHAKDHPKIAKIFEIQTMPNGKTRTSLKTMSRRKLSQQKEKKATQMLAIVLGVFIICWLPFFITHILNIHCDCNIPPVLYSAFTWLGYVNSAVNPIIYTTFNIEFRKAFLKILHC

| Compound | D2 DAR Imax (D2 DAR) | IC50 (D2 DAR) | Emax (D3 DAR [1]) | IC50 (D3 DAR [1]) | IC50 (D3 DAR [2]) | Emax (D3 DAR [2]) | D3 Go BRET Imax (D3 DAR [1]) | D3 DAR Imax (D3 DAR [2]) |
| --- | --- | --- | --- | --- | --- | --- | --- | --- |
| Cc1ccc(NS(=O)(=O)c2c(C)[nH]c(C)c2C(=O)N2CCC(F)(F)C2)cc1Cl [Cmp. 2] | NA (“NA” indicates not active) | > 100 µM | > 100% | 10 to 50 µM | 10 to 50 µM | 80 to 100% | – | – |
| Cc1ccc(NS(=O)(=O)c2c(C)[nH]c(C)c2C(=O)N2CCCC2C)cc1Cl (centres unmarked) [compound 3] | NA (“NA” indicates not active) | > 100 µM | > 100% | 1 to 10 µM | 10 to 50 µM | 80 to 100% | – | – |
| Cc1[nH]c(C)c(S(=O)(=O)Nc2ccc(C(C)C)cc2)c1C(=O)N1CCCC1 [compound 4] | NA (“NA” indicates not active) | > 100 µM | > 100% | 1 to 10 µM | 10 to 50 µM | 80 to 100% | – | – |
| Cc1ccc(NS(=O)(=O)c2c(C)[nH]c(C)c2C(=O)N2CCC2)cc1Cl [compound 6] | NA (“NA” indicates not active) | > 100 µM | > 100% | 10 to 50 µM | 10 to 50 µM | 80 to 100% | – | – |
| Cc1[nH]c(C)c(S(=O)(=O)Nc2ccc(Cl)c(C(F)(F)F)c2)c1C(=O)N1CCCC1 [compound 7] | NA (“NA” indicates not active) | > 100 µM | > 100% | 1 to 10 µM | < 10 µM | 80 to 100% | – | – |
| CCc1ccc(NS(=O)(=O)c2c(C)[nH]c(C)c2C(=O)N2CCCC2)cc1Cl [compound 8] | NA (“NA” indicates not active) | > 100 µM | 80 to 100% | 1 to 10 µM | 10 to 50 µM | 80 to 100% | – | – |
| Cc1ccc(CNS(=O)(=O)c2c(C)[nH]c(C)c2C(=O)N2CCCC2)cc1Cl [compound 9] | NA (“NA” indicates not active) | > 100 µM | – | > 50 µM | 50 to 100 µM | – | NA (NA means not active) | Curve Incomplete |
| Cc1ccc(NS(=O)(=O)c2c(C)[nH]c(C)c2C(=O)N2CCCC2)cc1 [compound 10] | NA (“NA” indicates not active) | > 100 µM | – | > 50 µM | 10 to 50 µM | 80 to 100% | – | – |
| Cc1ccc(NS(=O)(=O)c2c(C)[nH]c(C)c2C(=O)N2CCCCC2)cc1Cl [compound 11] | NA (“NA” indicates not active) | > 100 µM | > 100% | 10 to 50 µM | 10 to 50 µM | 80 to 100% | – | – |
| Cc1ccc(NS(=O)(=O)c2c(C)[nH]c(C)c2C(=O)N2CCCC2)cc1C [compound 12] | NA (“NA” indicates not active) | > 100 µM | – | > 50 µM | 10 to 50 µM | 80 to 100% | – | – |
| Cc1[nH]c(C)c(S(=O)(=O)Nc2ccc(F)c(Cl)c2)c1C(=O)N1CCCC1 [compound 13] | NA (“NA” indicates not active) | > 100 µM | > 100% | 10 to 50 µM | 10 to 50 µM | 80 to 100% | – | – |
| Cc1[nH]c(C)c(S(=O)(=O)Nc2cccc(Cl)c2)c1C(=O)N1CCCC1 [compound 14] | NA (“NA” indicates not active) | > 100 µM | > 100% | 1 to 10 µM | 10 to 50 µM | 80 to 100% | – | – |
| CCc1ccc(NS(=O)(=O)c2c(C)[nH]c(C)c2C(=O)N2CCCC2)cc1 [compound 15] | NA (“NA” indicates not active) | > 100 µM | 80 to 100% | 10 to 50 µM | < 10 µM | 80 to 100% | – | – |
| CCOC(=O)C1=NOC2(C1)C(=O)Nc1ccc(OC(F)(F)F)cc12 (centres unmarked) [compound 45] | NA (“NA” indicates not active) | > 100 µM | – | – | 10 to 50 µM | – | – | + (A “+” is used to denote compounds with D3 DAR Imax (Imax=maximum inhibition) between 80% to 100%) |
| N-(3-chloro-4-(trifluoromethyl)phenyl)-2,5-dimethyl-4-(morpholine-4-carbonyl)-1H-pyrrole-3-sulfonamide [compound 30] | NA (“NA” indicates not active) | > 100 µM | – | – | > 100 µM | – | – | Curve Incomplete |

Results, then the compound that gave them:

| D2 DAR Imax (D2 DAR) | IC50 (D2 DAR) | Emax (D3 DAR [1]) | IC50 (D3 DAR [1]) | IC50 (D3 DAR [2]) | Emax (D3 DAR [2]) | D3 Go BRET Imax (D3 DAR [1]) | D3 DAR Imax (D3 DAR [2]) | Compound |
| --- | --- | --- | --- | --- | --- | --- | --- | --- |
| NA (“NA” indicates not active) | > 100 µM | > 100% | 10 to 50 µM | 10 to 50 µM | 80 to 100% | – | – | Cc1ccc(NS(=O)(=O)c2c(C)[nH]c(C)c2C(=O)N2CCCC2)cc1F [compound 16] |
| NA (“NA” indicates not active) | > 100 µM | > 100% | 10 to 50 µM | 50 to 100 µM | 80 to 100% | – | – | Cc1[nH]c(C)c(S(=O)(=O)Nc2ccc(C(F)(F)F)c(Cl)c2)c1C(=O)N1CCN(C(=O)OC(C)(C)C)CC1 [compound 19, tert-butyl 4-(4-(N-(3-chloro-4-(trifluoromethyl)phenyl)sulfamoyl)-2,5-dimethyl-1H-pyrrole-3-carbonyl)piperazine-1-carboxylate] |
| NA (“NA” indicates not active) | > 100 µM | – | > 50 µM | 50 to 100 µM | – | – | Curve Incomplete | Cc1[nH]c(C)c(S(=O)(=O)Nc2ccc(C(F)(F)F)c(Cl)c2)c1C(=O)N1CCNCC1.Cl [compound 20, N-(3-chloro-4-(trifluoromethyl)phenyl)-2,5-dimethyl-4-(piperazine-1-carbonyl)-1H-pyrrole-3-sulfonamide] |
| NA (“NA” indicates not active) | > 100 µM | > 100% | 10 to 50 µM | < 10 µM | 80 to 100% | – | – | Cc1[nH]c(C)c(S(=O)(=O)Nc2ccc(C(F)(F)F)c(Cl)c2)c1C(=O)N(C)C [compound 21, 4-(n-(3-chloro-4-(trifluoromethyl)phenyl)sulfamoyl)-N,N,2,5-tetramethyl-1H-pyrrole-3-carboxamide] |
| NA (“NA” indicates not active) | > 100 µM | > 100% | 10 to 50 µM | 50 to 100 µM | – | – | Curve Incomplete | Cc1[nH]c(C)c(S(=O)(=O)Nc2ccc(C(F)(F)F)c(Cl)c2)c1C(=O)O [compound 22, 4-(N-(3-chloro-4-(trifluoromethyl)phenyl)sulfamoyl)-2,5-dimethyl-1H-pyrrole-3-carboxylic acid] |
| NA (“NA” indicates not active) | > 100 µM | > 100% | 1 to 10 µM | < 10 µM | 80 to 100% | – | – | [2H]C1([2H])CCC([2H])([2H])N1C(=O)c1c(C)[nH]c(C)c1S(=O)(=O)Nc1ccc(C(F)(F)F)c(Cl)c1 [compound 23] |
| NA (“NA” indicates not active) | > 100 µM | – | > 50 µM | 50 to 100 µM | – | – | Curve Incomplete | Cc1[nH]c(C)c(S(=O)(=O)N2CCC(F)(F)C2)c1C(=O)Nc1ccc(C(F)(F)F)c(Cl)c1 [compound 24] |
| NA (“NA” indicates not active) | > 100 µM | > 100% | 1 to 10 µM | 10 to 50 µM | 80 to 100% | – | – | Cc1[nH]c(C)c(S(=O)(=O)Nc2ccc(C(F)(F)F)c(Cl)c2)c1C(=O)N1CC(F)(F)C(F)(F)C1 [compound 27, N-(3-chloro-4-(trifluoromethyl)phenyl)-2,5-dimethyl-4-(3,3,4,4-tetrafluoropyrrolidine-1-carbonyl)-1H-pyrrole-3-sulfonamide] |
| NA (“NA” indicates not active) | > 100 µM | 80 to 100% | 1 to 10 µM | < 10 µM | 80 to 100% | – | – | Cc1[nH]c(C)c(S(=O)(=O)Nc2ccc(S(F)(F)(F)(F)F)cc2)c1C(=O)N1CCC(F)(F)C1 [compound 28] |
| NA (“NA” indicates not active) | > 100 µM | > 100% | 10 to 50 µM | 10 to 50 µM | 80 to 100% | – | – | CCN(C)C(=O)c1c(C)[nH]c(C)c1S(=O)(=O)Nc1ccc(C(F)(F)F)c(Cl)c1 [compound 29] |
| NA (“NA” indicates not active) | > 100 µM | – | – | < 10 µM | 80 to 100% | – | – | Cc1[nH]c(C)c(S(=O)(=O)Nc2cc(Cl)c(C(F)(F)F)cc2Br)c1C(=O)N1CCC(F)(F)C1 [compound 41, N-(2-bromo-5-chloro-4-(trifluoromethyl)phenyl)-4-(3,3-difluoropyrrolidine-1-carbonyl)-2,5-dimethyl-1H-pyrrole-3-sulfonamide] |
